Laboratory results reported in patent publication US5206014A, “Synthetic nonapeptide for use as an adjuvant” (Sclavo, S.p.A., priority 1987, dated 1993).

How the values were obtained:
Type in all cases: in vivo
[1] = tested on: secondary antibody response to SRBC; assay: Secondary antibody response to SRBC, total PFC/spleen (IgM+IgG) in immunized mice; conditions: measured four days later, PBS control 29.992
Protocol: The number of IgG class antibody-secreting cells characteristic of the secondary response is determined, before the complement is added, by adding a direct rabbit antiserum against mouse immunoglobulins.
(§1) According to the invention, therefore, anti-body secreting cells of Classes IgM and IgG are determined by isolating lymphocytes from the spleen of mice immunized with SRBC and SIII antigens and treated by various methods and with various doses of peptide 163-171.TFA and peptide 163-171.HCl. To this end use has been made with identical results of inbred male C3H/HeNCr1BR mice and male and female C3H/HeJ mice weighing about 25 g. According to the invention, SRBC and SIII antigens previously dissolved in phosphate buffer (PBS) were inoculated in the mice, intravenously and intraperitoneally respectively, at a concentration of 1-2×10^8 SRBC/0.2 ml of PBS and 0.5 μg/0.5 ml of PBS.
Mice immunized with SRBC as in Example 1 hereinbefore were intraperitoneally re-inoculated four days after the first inoculation with a similar dose of SRBC antigens and simultaneously with 12, 36, 100 mg/kg peptide 163-171.TFA and 500 - 1000 - 2000 U/kg of human IL-1-β.
The immunostimulating activity of the peptide on the secondary response to SRBC was also determined by administering the same doses of peptide and human IL-1β but only with the first inoculation.
Four days after the second dose the mice were killed and the number of PFC/spleen was determined as in Example 1, after combining the complement with a rabbit serum against mouse immunoglobulin at a final dilution of 1:200.
^a The mice intravenously inoculated with 1-2 × 10^8 SRBC o
day -10 and were given a similar dose on day 0 and simultaneously treated
intraperitoneally with PBS (control) or with various doses of peptide
163-171.TFA or hu rIL1β. The total number of antiSRBC PFC was
measured four days after the second inoculation of antigen.
The procedure was the same as in Example 4, the antigen being intravenously inoculated together with preparations of peptide 163-171.TFA and 163-171.HCl (from 100 pg/kg to 100 μg/kg in PBS).

[2] = tested on: primary antibody response to sheep's red corpuscles (SRBC), thymo-dependent antigen; assay: Primary antibody response to SRBC, direct haemolysis plaque (PFC/spleen, IgM) in immunized mice
Protocol: (§2) More particularly, the immunostimulating activity of peptides 163-171 TFA and 163-171.HCl were assayed in the antibody response to sheep's red blood compuscles, thymo-dependent antigens and in response to the polysaccharide of Streptococcus pneumoniae serotype 3 (SIII), a thymo-independent antigen having low immunogenicity by using the method of haemolysis of plaques described by Cunningham A. J. and Szenberg (Immunology, 14, 599, 1968).
The method consists in determining the number of cells which secrete antibodies specific to a given antigen. It consists in immunizing mice with the antigen to be assayed, placing lymphocytes obtained from the spleen of the immunized mice in contact with the same antigen, and finally in detecting the haemolysis plaques by adding complement.
Lysis zones (plaque-forming cells PFC) are observed at the place where the antigen-antibody reaction occurs, i.e. at each cell producing specific antibodies.
as §1, with “PBS. […]” for “PBS.”
The slides, sealed at the edges with paraffin, were then incubated in a thermostat at 37° C. for one hour. At the end of this period, the plaques of direct haemolysis were counted using a light-contrast visor, indicating the number of lymphocytes secreting antibodies (PFC). The thus-detected antibodies were in Class IgM, specific to the primary antibody response. […]

[3] = tested on: primary response to polysaccharide of Streptococcus pneumoniae serotype 3 (SIII); assay: Primary antibody response to thymo-independent antigen SIII, PFC/spleen in immunized mice; conditions: 500 U/kg intraperitoneally
Protocol: as §2
as §1, with “PBS. […]” for “PBS.”
The adjuvant activity of peptide 163-171.TFA and of human IL-1-β were then determined as in Example 1 by using 25 μl of a 10% suspension of SIII antigen conjugated with SRBC by chromium chloride in PBS (Baker P. J. et al. Appl. Microbiol. 17, 422 (1969)). […]

Substance: hu rIL-1β: human interleukin 1β (Genzyme Corporation Boston), comparator adjuvant
- Average of total anti-SRBC PFC-spleen (95% confidence limits) ([1]; 500 U/kg intraperitoneally with second SRBC inoculum (day 0)): 59.841 (45.604-78.343) PFC-spleen
- Average of total anti-SRBC PFC-spleen (95% confidence limits) ([1]; 1000 U/kg intraperitoneally with second SRBC inoculum (day 0)): 77.624 (61.502-97.499) PFC-spleen
- Average of total anti-SRBC PFC-spleen (95% confidence limits) ([1]; 2000 U/kg intraperitoneally with second SRBC inoculum (day 0)): 100.000 (84.139-118.850) PFC-spleen
- Average of total anti-SRBC PFC-spleen (95% confidence limits) ([1]; 4000 U/kg intraperitoneally with second SRBC inoculum (day 0)): 42.364 (29.853-59.979) PFC-spleen
- Statistical significance versus control of PFC/spleen, primary response to SRBC (FIG. 1-B) ([2]; 4000 U/kg intraperitoneally): non-significant
- Effect on number of plaques/spleen, primary response to SRBC (FIGS. 1A, 1B) ([2]; intraperitoneal, peptide 12-100 mg/kg, IL-1β 500-4000 U/kg, depending on the dose): increase in the number of plaques/spleen
- Optimum intravenous dose ([2]; intravenous, response not specified): 0.0001 µg/kg
- Statistical significance versus control of PFC/spleen, primary response to SIII (FIG. 5) [3]: non-significant
